Assay results: patent US20060128763A1 (priority 2003, published 2006)

Legend:
[1] = DSC scan, FIGS. 3 and 4
physchem = conditions: water, thermodynamic from solid
Description: The measurement was performed according to the procedure described in the Korean Pharmacopoeia (Korean Ministry of Health and Welfare, General principle of medical supplies, Vol. 1, Clause 29, the 7th revision) which comprises the steps of dissolving each compound in distilled water to saturation, analyzing the saturated solution with liquid chromatography, and measuring the dissolved amount of each compound based on the amount of amlodipine.

SMILES | thermodynamic stability (DSC absorption peak temperature compared with the crystalline form) [1] | solubility (physchem) [µg/mL]
CC1(C)[C@@H]2CC[C@@]1(CS(=O)(=O)O)C(=O)C2.CCOC(=O)C1=C(COCCN)NC(C)=C(C(=O)OC)C1c1ccccc1Cl (centres unmarked) [Amorphous amlodipine camsylate, amorphous amlodipine camsylate] | sufficient thermodynamic stability | 
CCOC(=O)C1=C(COCCN)NC(C)=C(C(=O)OC)C1c1ccccc1Cl (centres unmarked) [Crystalline amlodipine besylate, amlodipine benzenesulfonate] |  | 2350
